Source: article PMC7815396, “Hypoglycemic Effect of Calea urticifolia (Mill.) DC” (Evidence-based Complementary and Alternative Medicine : eCAM, 2021)

Key:
[1] = molecular target: T1, alpha-glucosidases from rat intestine; experiment: p-nitrophenol release at […] nm; format: biochemical; conditions: 2 mM p-nitrophenyl-alpha-D-glucopyranoside; 0.1 M phosphate pH 6.8; crude intestinal extract
T1 construct: gene Si; crude rat intestinal extract (Sigma I1630); enzymes not separated

[2] = molecular target: T2, alpha-glucosidases from Saccharomyces cerevisiae; experiment: p-nitrophenol release at […] nm; format: biochemical; conditions: 2 mM p-nitrophenyl-alpha-D-glucopyranoside; 0.1 M phosphate pH 6.8
T2 construct: gene MAL12; commercial yeast enzyme (Sigma G5003), native

Rat intestine / α-Glucosidase enzymes / IC50 [1]: 18.6 µg/mL
S. cerevisiae / α-Glucosidase enzymes / IC50 [2]: 231.9 µg/mL
Compound: C[C@H]1O[C@H](O[C@H]2[C@H](O)[C@@H](O)[C@@H](O[C@H]3[C@H](O)[C@@H](O)C(O)O[C@@H]3CO)O[C@@H]2CO)[C@H](O)[C@@H](O)[C@@H]1N[C@H]1C=C(CO)[C@@H](O)[C@H](O)[C@H]1O (some centres unmarked) [Acarbose]
